SMILES strings stand for the structures.

This is an account of results in patent US10329262B2, “Quinazolinone antibiotics” (priority 2013, dated 2019).

One series relates to S. aureus (ATCC 29213). Briefly: Macromolecular synthesis assays. The series is classed as cell-based, Staphylococcus aureus. The following applies: Staphylococcus aureus, ATCC29213; positive control, 16 μg/mL; read-out: Inhibition of cell-wall (peptidoglycan) biosynthesis. An excerpt:
Mechanism of Action of the Quinazolinones. The mode of action of 2 was investigated by macromolecular synthesis assays in S. aureus in the logarithmic phase, which monitor incorporation of radiolabeled precursors [methyl-^3H]-thymidine, [5-^3H]-uridine, L-[4,5-^3H]-leucine, or D-[2,3-^3H]-alanine into DNA, RNA, protein, or cell wall (peptidoglycan), respectively. Inhibition of radiolabeled precursor incorporation by 2 at a concentration of half the MIC was compared with those of known inhibitors of each pathway (ciprofloxacin, rifampicin, tetracycline, and fosfomycin, respectively).
The mode of action of 2 was investigated by macromolecular synthesis assays in S. aureus in the logarithmic phase (Miller, A A et al. Antimicrob. Agents Chemother. 52, 2806-12 (2008)), which monitor incorporation of radiolabeled precursors [methyl-^3H]-thymidine, [5-^3H]-uridine, L-[4,5-^3H]-leucine, or D-[2,3-^3H]-alanine into DNA, RNA, protein, or cell wall (peptidoglycan), respectively.
The incorporation of radiolabeled precursors—[methyl-^3H]-thymidine, [5-^3H]-uridine, L-[4,5-^3H]-leucine, or D-[2,3-^3H]-alanine—into DNA, RNA, protein, or peptidoglycan, respectively, in logarithmically growing S. aureus (ATCC 29213) was measured using a previously published method, with aliquots taken every 20 min over a 120-min incubation period (Wilson et al., Antimicrob. Agents Chemother. 39, 1925-33 (1995)).

The conditions of series [1]: cited from earlier work.

As a reminder, the inhibition is the share of the control response that was lost under treatment. Consider `C[C@@H]1O[C@@H]1P(=O)(O)O` [fosfomycin, reference compound], for which the inhibition at 16 µg/mL with S. aureus (ATCC 29213) is 64 ± 8%.
On to `CCCCCCCCCC(=O)N[C@@H](Cc1c[nH]c2ccccc12)C(=O)N[C@H](CC(N)=O)C(=O)N[C@@H](CC(=O)O)C(=O)N[C@@H]1C(=O)NCC(=O)N[C@@H](CCCN)C(=O)N[C@@H](CC(=O)O)C(=O)N[C@H](C)C(=O)N[C@@H](CC(=O)O)C(=O)NCC(=O)N[C@H](CO)C(=O)N[C@@H]([C@H](C)CC(=O)O)C(=O)N[C@@H](CC(=O)c2ccccc2N)C(=O)O[C@@H]1C` [daptomycin], for which, in series [1], the Plasma protein binding is on record as above 91%.
